Assay results published in patent publication US4127722A, “Benzhydrylsulphinyl derivatives” (Laboratoire L. Lafon, priority 1975, dated 1978).
Entries after “also recorded” stand apart in the source; their conditions may differ. Counter-ions that a name gives are not always drawn.

Assays:
[1] = Toxicity, intraperitoneal administration, mice; format: in vivo; details: mouse, in vivo, ip, intraperitoneal administration
mice [2] = assay: Toxicity, intraperitoneal administration, mice; format: in vivo; details: i.p., 256 mg/kg, 512 mg/kg and 1,024 mg/kg
[3] = system: stereotype behaviour induced by amphetamine; assay: Interaction with amphetamine; format: in vivo, rats
Description: Amphetamine (2 mg/kg, given intraperitoneally) is injected 30 minutes after the administration of CRL 40,028 (6 rats/dose).

mice [4] = assay: General behaviour, mice; format: in vivo; details: at all the doses studied (toxicity test)
[5] = system: motor activity after anoxia; assay: Motor recovery after hypoxia aggression; format: in vivo, mice
residual motility = assay: Residual motility; format: in vivo, mice; details: animals becoming accustomed to the chamber
[6] = General behaviour / psychopharmacological spectrum (species not stated); format: in vivo
[7] = Toxicity, gastric administration, mice; details: mouse, in vivo, po
spontaneous motility = assay: Spontaneous motility (actimetry); format: in vivo, mice; details: for % relative to the control animals / % variation: rays crossed
Description: CRL 40,028 increases the motor activity of the animals from a dose of 16 mg/kg onwards. As this effect is representative of the activity of CRL 40,028, attempts have been made to obtain its kinetics more precisely. […]

[8] = system: hypothermia and ptosis produced by reserpine; assay: Interaction with reserpine; format: in vivo, mice
Description: Batches of 6 mice are given an intraperitoneal injection of reserpine (2.5 mg/kg) 4 hours before the administration of CRL 40,028.

[9] = system: convulsive effects of the electric shock; assay: Electric shock; format: in vivo, mice
Description: (§1) The test is carried out on batches of 20 mice, 30 minutes after the administration of CRL 40,028.

central nervous system = assay: Pharmacological tests: action on the central nervous system, overall profile; format: in vivo
Description: The results of the pharmacological tests which were carried out have been summarised below.

[10] = system: hypothermia, trembling and peripheral cholinergic symptoms brought about by oxotremorine; assay: Interaction with oxotremorine; format: in vivo, mice
Description: Mice (6 per dose) are given an intraperitoneal injection of 0.5 mg/kg of oxotremorine 30 minutes after the administration of CRL 40,028.

[11] = system: stereotype behaviour caused by apomorphine; assay: Interaction with apomorphine; format: in vivo, rats
Description: Batches of 6 rats are given CRL 40,028 30 minutes after the subcutaneous injection of 0.5 mg/kg of apomorphine.

groups of mice = assay: Group toxicity; details: in words, comparison with amphetamine-type compounds
passes which entail pain = assay: Four plate test; format: in vivo, mice; details: mice
Description: as §1

carrageenin oedema = assay: Carrageenin oedema; format: in vivo

O=C(C[S+]([O-])C(c1ccccc1)c1ccccc1)NO (stereo not shown) [CRL 40,028, benzhydrylsulphinylacetohydroxamic acid]
LD50 [1]: ≤ 2050 mg/kg | mortality (mice [2]): no mortality was observed | Boosting action on amphetamine ([3]; Table IV, graded symbols): 0 | boosting of the effect of amphetamine ([3]; in words): does not boost the action of amphetamine; also recorded: absence of boosting | effect on stereotype behaviour induced by amphetamine ([3]; rats, amphetamine 2 mg/kg i.p.): does not produce an overall change in the stereotype behaviour induced by amphetamine | excitation of the animal (mice [4]): excitation of the animal was observed | solubility (Solubility in water): < 1000 µg/mL | aggravation of the effects of hypoxia ([5]; comparison with caffeine): absence of an aggravation | motor activity after anoxia ([5]; mice, 512, 128 and 32 mg/kg, vs control animals): markedly greater motor activity than that of the control animals | effect on residual motility (residual motility): stimulating effect | stereotypies ([6]; Table IV, graded symbols): 0 | stimulant properties (overall) ([6]; animal psychopharmacology): stimulant properties, namely causing excitation and hyper-reactivity, and hypermotility | stereotypies ([6]; in words, comparison with amphetamine-type compounds): absence of stereotypies | LD50 [7]: 1950 mg/kg | minimal effective dose (spontaneous motility; Mus musculus, spontaneous motility, read-out: dose from which motor activity is increased): ≥ 16 mg/kg | time in which hypermotility appears (spontaneous motility; mice, 64 mg/kg): less than 30 minutes | time in which hypermotility disappears (spontaneous motility; mice, 64 mg/kg): 4 h | time of maximum hypermotility (spontaneous motility; mice, 64 mg/kg): one | Number of rays crossed in 30 minutes (spontaneous motility; mice, 64 mg/kg, - 30 mins): 311 | Number of rays crossed in 30 minutes (spontaneous motility; mice, 64 mg/kg, - 1 hr): 424 | Number of rays crossed in 30 minutes (spontaneous motility; mice, 64 mg/kg, - 2 hrs): 376 | Number of rays crossed in 30 minutes (spontaneous motility; mice, 64 mg/kg, - 4 hrs): 234 | % relative to the control animals (spontaneous motility; mice, 64 mg/kg, - 30 mins): 155% | % variation (spontaneous motility; mice, 64 mg/kg, - 30 mins): +55% | % relative to the control animals (spontaneous motility; mice, 64 mg/kg, - 1 hr): 212% | % variation (spontaneous motility; mice, 64 mg/kg, - 1 hr): +112% | % relative to the control animals (spontaneous motility; mice, 64 mg/kg, - 2 hrs): 188% | % variation (spontaneous motility; mice, 64 mg/kg, - 2 hrs): +88% | % relative to the control animals (spontaneous motility; mice, 64 mg/kg, - 4 hrs): 117% | % variation (spontaneous motility; mice, 64 mg/kg, - 4 hrs): +17% | Anti-reserpine action (ptosis) ([8]; Table IV, graded symbols): 0 | anti-reserpine effect ([8]; in words): absence of a marked antagonism to reserpine | hypothermia due to reserpine ([8]; in words): absence of a marked antagonism to hypothermia brought about by reserpine | effect on hypothermic effect of reserpine ([8]; mice, 256 and 64 mg/kg, reserpine 2.5 mg/kg i.p.): partially counteracts the hypothermic effect of reserpine | effect on ptosis produced by reserpine ([8]; mice, reserpine 2.5 mg/kg i.p.): does not resolve the palpebral ptosis | aggravation of the effects of electric shock ([9]; comparison with caffeine): absence of an aggravation | antagonism against convulsive effects of the electric shock ([9]; mice, only at 256 mg/kg): a very moderate antagonism | psychostimulant profile (central nervous system; comparison with amphetamine and caffeine): a psychostimulant which comes closer to caffeine | Anti-oxotremorine action (peripheral) ([10]; Table IV, graded symbols): 0 | effect on hypothermic effect of oxotremorine ([10]; mice, 64 mg/kg): not | effect on hypothermic effect of oxotremorine ([10]; mice, 256, 16 and 4 mg/kg): moderately opposes the hypothermic effect of oxotremorine | effect on trembling brought about by oxotremorine ([10]; mice, at all the doses): moderately reduces | effect on peripheral cholinergic symptoms (salivation, lachrymation, defaecation) ([10]; mice, oxotremorine 0.5 mg/kg i.p.): does not alter the increase in salivation, lachrymation and defaecation | Boosting action on apomorphine ([11]; Table IV, graded symbols): 0 | boosting of the effect of apomorphine ([11]; in words, comparison with amphetamine / caffeine): absence of boosting of the effect of apomorphine | activity on the stereotype behaviour caused by apomorphine ([11]; rats, apomorphine 0.5 mg/kg s.c.): does not exert any activity | toxicity in the groups of mice (groups of mice): virtual absence of specific (?) toxicity | number of passes which entail pain (passes which entail pain; 4.1 mg/kg): a modest decrease in the number of such passes | number of passes which entail pain (passes which entail pain; 256 and 64 mg/kg): an increase in the number of passes which entail pain | decrease in motility (passes which entail pain; at no dose): At no dose does CRL 40,028 bring about a major decrease in motility

[O-][S+](CCC1=NCCN1)C(c1ccccc1)c1ccccc1 (stereo not shown) [CRL 40,066, 2-(2-Benzhydrylsulphinyl-ether)-imidazoline hydrochloride]
anti-oedema effect (carrageenin oedema): an anti-oedema effect | action on the central nervous system (central nervous system; in words): an effect on the central nervous system
